# Key:
# [1] = tested on: Ovarian cancer cells OVCAR3; assay: Inhibitory activity against ovarian cancer cells (OVCAR3), CellTiter-Glo cell viability; assay type: cell-based; details: for IC50: Homo sapiens, OVCAR-3, 120 h, OVCAR3 cells, 2500 cells/well, 5 days with compound, highest concentration 10 µM, Celltiter Glo; for inhibitory activity against OVCAR3 tumor cells compared with Janssen-01: comparison in words with the disclosed compound Janssen-01
# Method: Test Example 1. Assay for Inhibitory Activity of Compounds of Present Disclosure Against Ovarian Cancer Cells (OVCAR3)
# Ovarian cancer cells OVCAR3 (source: Nanjing Cobioer Biosciences Co., Ltd.) were cultured in an RPMI 1640 culture medium supplemented with 10% FBS in a cell incubator at 37 °C with 5% CO2. On day one, the cells were plated in a 96-well plate at a cell concentration of 2500 cells/well and cultured overnight in an incubator. On day two, the cells were treated with compounds. The highest compound concentration was 10 µM and was diluted 3-fold to obtain 9 concentrations, and the final concentration of DMSO was 0.1%. After the cells were cultured in the incubator for another 5 days, the cell viability was measured using a Celltiter Glo assay kit (Promega) by a method consistent with that provided by the kit. Data were processed using GraphPad Prism 8, and IC50 was calculated. [formula] X: the logarithm of the compound concentration; Y: % inhibition; Bottom: bottom; Top: top; HillSlope: Hill slope. Table 2. The IC50 (nM) of the compounds of the present disclosure against OVCAR3
# CDK2/CyclinE1 = CDK2/CyclinE1 (Homo sapiens, UniProt P24941); assay: ADP-Glo kinase assay, CDK2; assay type: biochemical; details: 1 nM CDK2/CyclinE1, 15 µM ATP (Km), 0.1 mg/mL histone H1, 60 min; read-out: inhibitory activity (IC50, nM) CDK2
# Method: (§1) An ADP-Glo kinase assay was used for testing the activity of CDKs. The compounds were diluted in 384-well plates using Echo. The starting concentration was 10 µM and was diluted 3-fold to obtain 10 concentration points, and each concentration was tested in duplicate. The final concentration of DMSO in the assay system was 1%. CDK solutions (final concentrations: 16.5 nM CDK1/CyclinB, 1 nM CDK2/CyclinE1, 16.3 nM CDK4/CyclinD1, 15.7 nM CDK6/CyclinD3, 80 nM CDK7/Cyclin H/MAT1, and 15.3 nM CDK9/Cyclin T1) prepared with assay buffer were added at 2.5 µL, and the enzymes and compounds were pre-incubated at room temperature for 10 min. […] After thorough mixing, the plates were incubated at room temperature (for 120 min for CDK1/4/9 and for 60 min for CDK2/6/7). 4 µL of the ADP-Glo reagent was added, and the plates were incubated at room temperature for 40 min. 8 µL of the kinase assay reagent was added, and the plates were incubated at room temperature for 40 min. Readings were taken using an Envision multimode microplate reader. Data were processed using GraphPad Prism 8, and IC50 was calculated. [formula] X: the logarithm of the compound concentration; Y: % inhibition; Bottom: bottom; Top: top; HillSlope: Hill slope. Table 3. The inhibitory activity (IC50, nM) of the compounds of the present disclosure against CDKs
# CDK4/CyclinD1 = CDK4/CyclinD1 (Homo sapiens, UniProt P11802); assay: ADP-Glo kinase assay, CDK4; assay type: biochemical; details: 16.3 nM CDK4/CyclinD1, 200 µM ATP (Km), 0.2 mg/mL DYRKtide, 120 min; read-out: inhibitory activity (IC50, nM) CDK4
# Method: as §1
# CDK9/Cyclin T1 = CDK9/Cyclin T1 (Homo sapiens, UniProt P50750); assay: ADP-Glo kinase assay, CDK9; assay type: biochemical; details: 15.3 nM CDK9/Cyclin T1, 60 µM ATP (Km), 0.2 mg/mL PDKtide, 120 min; read-out: inhibitory activity (IC50, nM) CDK9
# Method: as §1
# CDK7/Cyclin H/MAT1 = CDK7/Cyclin H/MAT1 (Homo sapiens, UniProt P50613); assay: ADP-Glo kinase assay, CDK7; assay type: biochemical; details: 80 nM CDK7/Cyclin H/MAT1, 70 µM ATP (Km), 0.2 mg/mL MBP, 60 min; read-out: inhibitory activity (IC50, nM) CDK7
# Method: as §1
# CDK6/CyclinD3 = CDK6/CyclinD3 (Homo sapiens, UniProt Q00534); assay: ADP-Glo kinase assay, CDK6; assay type: biochemical; details: 15.7 nM CDK6/CyclinD3, 200 µM ATP (Km), 0.1 mg/mL histone H1, 60 min; read-out: inhibitory activity (IC50, nM) CDK 6
# Method: as §1
# CDK1/CyclinB = CDK1/CyclinB (Homo sapiens, UniProt P06493); assay: ADP-Glo kinase assay, CDK1; assay type: biochemical; details: 16.5 nM CDK1/CyclinB, 20 µM ATP (Km), 0.1 mg/mL histone H1, 120 min; read-out: inhibitory activity (IC50, nM) CDK1
# Method: as §1
# Chain of CDK1/CyclinB (P06493 whole entry, species assumed): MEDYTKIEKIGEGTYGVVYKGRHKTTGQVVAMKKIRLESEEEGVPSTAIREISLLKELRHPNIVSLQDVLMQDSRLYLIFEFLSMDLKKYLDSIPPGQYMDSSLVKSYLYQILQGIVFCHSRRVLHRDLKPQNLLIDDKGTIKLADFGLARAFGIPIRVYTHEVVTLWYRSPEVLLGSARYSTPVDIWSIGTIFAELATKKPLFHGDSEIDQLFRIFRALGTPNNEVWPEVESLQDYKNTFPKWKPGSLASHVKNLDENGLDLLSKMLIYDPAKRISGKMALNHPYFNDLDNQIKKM
# Chain of CDK1/CyclinB (P14635 whole entry partner, species assumed): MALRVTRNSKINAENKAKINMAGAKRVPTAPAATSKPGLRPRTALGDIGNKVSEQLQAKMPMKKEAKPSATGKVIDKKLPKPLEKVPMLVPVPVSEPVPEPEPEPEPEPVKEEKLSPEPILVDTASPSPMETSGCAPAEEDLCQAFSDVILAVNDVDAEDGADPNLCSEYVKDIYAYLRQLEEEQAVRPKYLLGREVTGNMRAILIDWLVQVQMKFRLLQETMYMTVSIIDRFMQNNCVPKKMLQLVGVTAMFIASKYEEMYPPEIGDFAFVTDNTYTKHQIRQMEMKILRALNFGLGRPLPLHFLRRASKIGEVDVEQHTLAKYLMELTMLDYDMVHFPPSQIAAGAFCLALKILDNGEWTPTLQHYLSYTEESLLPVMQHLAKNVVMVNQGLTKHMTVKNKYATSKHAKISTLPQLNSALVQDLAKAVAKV
# Chain of CDK6/CyclinD3 (Q00534 whole entry, species assumed): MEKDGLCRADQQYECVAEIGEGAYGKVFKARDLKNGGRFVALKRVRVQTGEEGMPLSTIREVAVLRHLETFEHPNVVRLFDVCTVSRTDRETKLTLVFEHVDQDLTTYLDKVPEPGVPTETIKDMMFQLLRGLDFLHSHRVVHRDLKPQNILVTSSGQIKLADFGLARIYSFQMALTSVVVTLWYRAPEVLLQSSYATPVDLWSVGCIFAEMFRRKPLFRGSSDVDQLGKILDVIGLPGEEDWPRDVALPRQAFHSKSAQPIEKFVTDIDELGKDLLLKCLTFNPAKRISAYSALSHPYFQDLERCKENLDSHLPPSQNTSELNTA
# Chain of CDK6/CyclinD3 (P30281 whole entry partner, species assumed): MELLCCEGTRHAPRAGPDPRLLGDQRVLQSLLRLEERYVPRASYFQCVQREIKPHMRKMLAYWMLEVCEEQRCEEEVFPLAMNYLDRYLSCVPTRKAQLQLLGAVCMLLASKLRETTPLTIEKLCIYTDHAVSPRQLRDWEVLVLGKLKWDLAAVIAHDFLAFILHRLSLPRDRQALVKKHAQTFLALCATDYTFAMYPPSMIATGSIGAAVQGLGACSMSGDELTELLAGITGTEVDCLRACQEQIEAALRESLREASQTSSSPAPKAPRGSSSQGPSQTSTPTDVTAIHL
# Chain of CDK7/Cyclin H/MAT1 (P50613 whole entry, species assumed): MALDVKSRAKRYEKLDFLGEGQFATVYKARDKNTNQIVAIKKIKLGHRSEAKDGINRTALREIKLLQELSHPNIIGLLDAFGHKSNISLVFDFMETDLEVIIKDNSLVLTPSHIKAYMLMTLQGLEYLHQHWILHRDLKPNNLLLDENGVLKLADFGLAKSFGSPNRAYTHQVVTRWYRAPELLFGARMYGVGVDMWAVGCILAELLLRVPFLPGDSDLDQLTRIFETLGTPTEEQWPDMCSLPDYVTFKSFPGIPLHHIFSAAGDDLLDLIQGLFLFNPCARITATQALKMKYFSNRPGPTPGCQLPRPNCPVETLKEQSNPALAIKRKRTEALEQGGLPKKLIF
# Chain of CDK7/Cyclin H/MAT1 (P51946 whole entry partner, species assumed): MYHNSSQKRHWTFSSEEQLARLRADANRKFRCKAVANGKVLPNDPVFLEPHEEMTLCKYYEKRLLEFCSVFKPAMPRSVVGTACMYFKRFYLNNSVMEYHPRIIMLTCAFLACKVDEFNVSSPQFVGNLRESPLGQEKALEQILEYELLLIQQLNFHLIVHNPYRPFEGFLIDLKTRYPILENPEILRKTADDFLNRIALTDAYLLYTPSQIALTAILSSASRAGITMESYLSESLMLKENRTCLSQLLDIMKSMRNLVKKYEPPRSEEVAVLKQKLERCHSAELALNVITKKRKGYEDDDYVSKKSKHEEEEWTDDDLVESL
# Chain of CDK7/Cyclin H/MAT1 (P51948 whole entry partner, species assumed): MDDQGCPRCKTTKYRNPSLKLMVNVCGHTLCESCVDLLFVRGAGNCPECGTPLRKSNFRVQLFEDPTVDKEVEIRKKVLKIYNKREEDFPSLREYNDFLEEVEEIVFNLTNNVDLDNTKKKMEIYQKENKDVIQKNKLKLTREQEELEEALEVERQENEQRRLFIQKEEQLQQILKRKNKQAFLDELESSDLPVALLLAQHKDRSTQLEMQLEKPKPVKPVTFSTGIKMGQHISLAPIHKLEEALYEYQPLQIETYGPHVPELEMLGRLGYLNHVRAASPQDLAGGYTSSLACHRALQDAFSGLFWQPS
# Chain of CDK9/Cyclin T1 (P50750 whole entry, species assumed): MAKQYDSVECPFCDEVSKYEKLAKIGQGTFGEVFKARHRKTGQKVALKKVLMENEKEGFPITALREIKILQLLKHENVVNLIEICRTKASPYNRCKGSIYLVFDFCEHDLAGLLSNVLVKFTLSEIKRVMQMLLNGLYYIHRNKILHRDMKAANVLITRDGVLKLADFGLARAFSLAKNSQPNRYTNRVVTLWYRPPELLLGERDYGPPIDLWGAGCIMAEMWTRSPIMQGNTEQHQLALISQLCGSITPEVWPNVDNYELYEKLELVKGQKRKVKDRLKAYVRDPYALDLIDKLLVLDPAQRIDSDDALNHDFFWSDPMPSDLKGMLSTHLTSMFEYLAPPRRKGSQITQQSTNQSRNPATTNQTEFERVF
# Chain of CDK9/Cyclin T1 (O60563 whole entry partner, species assumed): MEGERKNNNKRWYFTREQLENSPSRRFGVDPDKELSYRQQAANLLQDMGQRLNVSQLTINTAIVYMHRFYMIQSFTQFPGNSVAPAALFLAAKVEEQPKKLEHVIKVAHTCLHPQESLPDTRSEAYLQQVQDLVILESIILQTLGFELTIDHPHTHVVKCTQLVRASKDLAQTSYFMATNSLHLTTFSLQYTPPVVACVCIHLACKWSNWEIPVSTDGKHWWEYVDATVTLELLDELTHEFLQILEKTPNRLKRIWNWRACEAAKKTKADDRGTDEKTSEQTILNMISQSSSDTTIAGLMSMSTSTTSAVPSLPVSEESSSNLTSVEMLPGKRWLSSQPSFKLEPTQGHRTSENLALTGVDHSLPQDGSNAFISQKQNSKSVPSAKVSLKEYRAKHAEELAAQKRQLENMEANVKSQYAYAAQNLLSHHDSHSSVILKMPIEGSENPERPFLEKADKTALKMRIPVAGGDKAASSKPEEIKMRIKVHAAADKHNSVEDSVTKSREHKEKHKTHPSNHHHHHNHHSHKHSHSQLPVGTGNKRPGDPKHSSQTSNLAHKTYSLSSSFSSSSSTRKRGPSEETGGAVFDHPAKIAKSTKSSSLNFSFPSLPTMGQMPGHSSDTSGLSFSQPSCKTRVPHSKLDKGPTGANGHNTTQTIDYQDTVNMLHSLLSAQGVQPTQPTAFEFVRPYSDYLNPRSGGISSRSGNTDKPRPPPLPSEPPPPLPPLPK
# Chain of CDK4/CyclinD1 (P11802 whole entry, species assumed): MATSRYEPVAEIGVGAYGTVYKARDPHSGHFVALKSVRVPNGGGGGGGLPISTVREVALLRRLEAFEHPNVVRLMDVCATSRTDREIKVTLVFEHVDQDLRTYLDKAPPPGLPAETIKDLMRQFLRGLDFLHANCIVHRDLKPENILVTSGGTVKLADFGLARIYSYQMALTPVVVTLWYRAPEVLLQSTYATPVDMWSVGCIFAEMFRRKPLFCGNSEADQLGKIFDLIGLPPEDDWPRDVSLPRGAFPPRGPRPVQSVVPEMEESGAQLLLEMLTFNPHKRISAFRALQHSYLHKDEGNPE
# Chain of CDK4/CyclinD1 (P24385 whole entry partner, species assumed): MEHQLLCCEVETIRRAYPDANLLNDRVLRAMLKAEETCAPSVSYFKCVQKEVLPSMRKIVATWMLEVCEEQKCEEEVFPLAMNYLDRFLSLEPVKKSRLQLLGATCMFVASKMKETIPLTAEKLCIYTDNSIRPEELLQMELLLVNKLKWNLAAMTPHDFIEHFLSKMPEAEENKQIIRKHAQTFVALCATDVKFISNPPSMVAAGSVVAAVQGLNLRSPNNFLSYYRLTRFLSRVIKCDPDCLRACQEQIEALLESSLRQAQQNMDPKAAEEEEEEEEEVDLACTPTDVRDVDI
SMILES,IC50 [1] [nM],inhibitory activity against OVCAR3 tumor cells compared with Janssen-01 [1],also measured
Cc1csc(CNc2ncc3c(n2)CN(C(=O)N[C@H](CN(C)C)c2ccccc2)[C@H](C)C3)n1 [Compound 1],10.2,–,–
"Cc1csc([C@H](C)Nc2ncc3c(n2)CN(C(=O)N[C@H](CN(C)C)c2ccccc2)[C@H](C)C3)n1 [Compound 2-1, (R)-N-((S)-2-(Dimethylamino)-1-phenylethyl)-6-methyl-2-(((S)-1-(4-methylthiazol-2-yl)ethyl)amino)-5,8-dihydropyrido[3,4-d]pyrimidine-7(6H)-carboxamide]",< 1.5,significantly better than that of the disclosed compound Janssen-01,IC50 (CDK2/CyclinE1): 711 nM; IC50 (CDK4/CyclinD1): > 1000 nM; IC50 (CDK9/Cyclin T1): > 1000 nM; IC50 (CDK7/Cyclin H/MAT1): 0.96 nM; IC50 (CDK6/CyclinD3): > 1000 nM; IC50 (CDK1/CyclinB): > 1000 nM
"Cc1csc([C@@H](C)Nc2ncc3c(n2)CN(C(=O)N[C@H](CN(C)C)c2ccccc2)[C@H](C)C3)n1 [Compound 2-2, (R)-N-((S)-2-(Dimethylamino)-1-phenylethyl)-6-methyl-2-(((R)-1-(4-methylthiazol-2-yl)ethyl)amino)-5,8-dihydropyrido[3,4-d]pyrimidine-7(6H)-carboxamide]",66,–,–
Cc1csc(C(C)Nc2ncc3c(n2)CN(C(=O)N[C@H](CN(C)C)c2ccccc2)[C@H](C)C3)n1 (stereo partly drawn) [Compound 2],3.98,–,–
"[2H]C([2H])([2H])N(C[C@@H](NC(=O)N1Cc2nc(N[C@@H](C)c3nc(C)cs3)ncc2C[C@H]1C)c1ccccc1)C([2H])([2H])[2H] [Compound 3-1, (R)-N-((S)-2-(Bis(methyl-d3)amino)-1-phenylethyl)-6-methyl-2-(((S)-1-(4-methylthiazo 1-2-yl)ethyl)amino)-5,8-dihydropyrido[3,4-d]pyrimidine-7(6H)-carboxamide]",< 1.5,significantly better than that of the disclosed compound Janssen-01,–
"[2H]C([2H])([2H])N(C[C@@H](NC(=O)N1Cc2nc(N[C@H](C)c3nc(C)cs3)ncc2C[C@H]1C)c1ccccc1)C([2H])([2H])[2H] [Compound 3-2, (R)-N-((S)-2-(Bis(methyl-d3)amino)-1-phenylethyl)-6-methyl-2-(((R)-1-(4-methylthiazo 1-2-yl)ethyl)amino)-5,8-dihydropyrido[3,4-d]pyrimidine-7(6H)-carboxamide]",101,–,–
"C[C@H](Nc1ncc2c(n1)CN(C(=O)N[C@H](CN(C)C)c1ccccc1)[C@H](C)C2)c1nc(C2CC2)cs1 [Compound 4, (R)-2-(((S)-1-(4-Cyclopropylthiazol-2-yl)ethyl)amino)-N-((S)-2-(dimethylamino)-1-phenylethyl)-6-methyl-5,8-dihydropyrido[3,4-d]pyrimidine-7(6H)-carboxamide]",< 1.5,significantly better than that of the disclosed compound Janssen-01,IC50 (CDK2/CyclinE1): 571 nM; IC50 (CDK4/CyclinD1): > 1000 nM; IC50 (CDK9/Cyclin T1): > 1000 nM; IC50 (CDK7/Cyclin H/MAT1): 0.55 nM; IC50 (CDK6/CyclinD3): > 1000 nM; IC50 (CDK1/CyclinB): > 1000 nM
"C[C@@H]1Cc2cnc(N[C@H](C)c3nc(C4CC4)cs3)nc2CN1C(=O)N[C@H](CN(C)C)c1ccccc1 [Compound 5, (R)-2-(((R)-1-(4-Cyclopropylthiazol-2-yl)ethyl)amino)-N-((S)-2-(dimethylamino)-1-phenylethyl)-6-methyl-5,8-dihydropyrido[3,4-d]pyrimidine-7(6H)-carboxamide]",17.5,–,–
"C[C@@H]1Cc2cnc(NCc3nc(C4CC4)cs3)nc2CN1C(=O)N[C@H](CN(C)C)c1ccccc1 [Compound 6, (R)-2-(((4-Cyclopropylthiazol-2-yl)methyl)amino)-N-((S)-2-(dimethylamino)-1-phenylethyl)-6-methyl-5,8-dihydropyrido[3,4-d]pyrimidine-7(6H)-carboxamide]",10.7,–,–
[2H]C([2H])([2H])N(C[C@@H](NC(=O)N1Cc2nc(NCc3nc(C)cs3)ncc2C[C@H]1C)c1ccccc1)C([2H])([2H])[2H] [Compound 7],11.2,–,–
"[2H]C([2H])([2H])N(C[C@@H](NC(=O)N1Cc2nc(NCc3nc(C4CC4)cs3)ncc2C[C@H]1C)c1ccccc1)C([2H])([2H])[2H] [Compound 8, (R)-2-(((4-Cyclopropylthiazol-2-yl)methyl)amino)-N-((S)-2-(bis(methyl-d3)amino)-1-phenylethyl)-6-methyl-5,8-dihydropyrido[3,4-d]pyrimidine-7(6H)-carboxamide]",9.89,–,–
"[2H]C([2H])([2H])N(C[C@@H](NC(=O)N1Cc2nc(N[C@@H](C)c3nc(C4CC4)cs3)ncc2C[C@H]1C)c1ccccc1)C([2H])([2H])[2H] [Compound 9, (R)-2-(((S)-1-(4-Cyclopropylthiazol-2-yl)ethyl)amino)-N-((S)-2-(bis(methyl-d3)amino)-1-phenylethyl)-6-methyl-5,8-dihydropyrido[3,4-d]pyrimidine-7(6H)-carboxamide]",< 1.5,significantly better than that of the disclosed compound Janssen-01,–
"[2H]C([2H])([2H])N(C[C@@H](NC(=O)N1Cc2nc(N[C@H](C)c3nc(C4CC4)cs3)ncc2C[C@H]1C)c1ccccc1)C([2H])([2H])[2H] [Compound 10, (R)-2-(((R)-1-(4-Cyclopropylthiazol-2-yl)ethyl)amino)-N-((S)-2-(bis(methyl-d3)amino)-1-phenylethyl)-6-methyl-5,8-dihydropyrido[3,4-d]pyrimidine-7(6H)-carboxamide]",19.3,–,–
"C[C@H](Nc1ncc2c(n1)CN(C(=O)N[C@H](CN(C)C)c1ccccc1)[C@H](C)C2)c1nc(CO)cs1 [Compound 11-1, (R)-N-((S)-2-(Dimethylamino)-1-phenylethyl)-2-(((S)-1-(4-(hydroxymethyl)thiazol-2-yl)ethyl)amino)-6-methyl-5,8-dihydropyrido[3,4-d]pyrimidine-7(6H)-carboxamide]",1.89,significantly better than that of the disclosed compound Janssen-01,–
"C[C@@H]1Cc2cnc(N[C@H](C)c3nc(CO)cs3)nc2CN1C(=O)N[C@H](CN(C)C)c1ccccc1 [Compound 11-2, (R)-N-((S)-2-(Dimethylamino)-1-phenylethyl)-2-(((R)-1-(4-(hydroxymethyl)thiazol-2-yl)ethyl)amino)-6-methyl-5,8-dihydropyrido[3,4-d]pyrimidine-7(6H)-carboxamide]",190,–,–
"C[C@@H]1Cc2cnc(NCc3ccn(C)n3)nc2CN1C(=O)[C@H]1CCN(C)C[C@@H]1c1ccccc1 [Janssen-01, reference compound]",22.2,–,–

# — EP4800014A1 (Tuojie Biotech (Shanghai) Co., Ltd., priority 2023, dated 2025)
